Experimental data: patent US20070032488A1, “6-Membered aryl and heteroaryl derivatives for treating viruses” (Genelabs Technologies, Inc., priority 2005, published 2007)

These compounds were tested on HCV replicon in ET (Huh-lucubineo-ET) cell line (screening for HCV RNA dependent RNA polymerase) (assay: Replicon Assay (luciferase reporter, ET cell line)). Conditions: Hepatitis C virus; tested at 12.5 μM; luciferase activity in ET replicon cells, relative to no compound control; read-out: % inhibition (of replication).
Format: cell-based
Procedure: A cell line, ET (Huh-lucubineo-ET) was used for screening of compounds of the present invention for HCV RNA dependent RNA polymerase. The ET cell line was stably transfected with RNA transcripts harboring a I389luc-ubi-neo/NS3-3′/ET; replicon with firefly luciferase-ubiquitin-neomycin phosphotransferase fusion protein and EMCV-IRES driven NS3-5B polyprotein containing the cell culture adaptive mutations (E1202G; T1280I; K1846T) (Krieger at al, 2001 and unpublished). The ET cells were grown in DMEM, supplemented with 10% fetal calf serum, 2 mM Glutamine, Penicillin (100 IU/mL)/Streptomycin (100 μg/mL), 1× nonessential amino acids, and 250 μg/mL G418 (“Geneticin”). They were all available through Life Technologies (Bethesda, Md.). The cells were plated at 0.5-1.0×10^4 cells/well in the 96 well plates and incubated for 24 hrs before adding nucleoside analogs. […] Luciferase activity was measured 48-72 hours later by adding a lysis buffer and the substrate (Catalog number Glo-lysis buffer E2661 and Bright-Glo leuciferase system E2620 Promega, Madison, Wis.). Cells should not be too confluent during the assay. Percent inhibition of replication was plotted relative to no compound control. Under the same condition, cytotoxicity of the compounds was determined using cell proliferation reagent, WST-1 (Roche, Germany). The compounds showing potent antiviral activities, but no significant cytotoxicities were chosen for further evaluation. For these determinations, a 10-point, 2-fold serial dilution for each compound was used which spans a concentration range of 1000 fold. IC50 and TC50 values were calculated by fitting % inhibition at each concentration to the following equation: % inhibition=100%/[(IC50/[I])b+1] where b is Hill's coefficient.
The % inhibition at a particular concentration was determined using the following equation: % Inhibition=100−[100*(Lum with inhibitor-bg)/(Lum with no inhibitor-bg)]
where bg was the background with no replicon cell, and Lum was the luminescence intensity of the reporter luciferase gene.

| SMILES | inhibition at 12.5 µM |
| --- | --- |
| Cc1nc(C)c(-c2ccc3cc(-c4c(/C=C/C(=O)N5CCOCC5)cc(C(=O)O)cc4C4CCCCC4)ccc3n2)s1 [Compound 2.9a, 3-cyclohexyl-4-(2-(2,4-dimethylthiazol-5-yl)quinolin-6-yl)-5-((E)-3-morpholino-3-oxoprop-1-enyl)benzoic acid] | 65% |
| Cc1nc(C)c(-c2ccc3cc(-c4c(CC(=O)N5CCOCC5)cc(C(=O)O)cc4C4CCCCC4)ccc3n2)s1 [Compound 9, 3-cyclohexyl-4-[2-(2,4-dimethyl-thiazol-5-yl)-quinolin-6-yl]-5-(2-morpholin-4-yl-2-oxo-ethyl)-benzoic acid] | 6.4% |
| C#Cc1cc(C(=O)O)cc(C2CCCCC2)c1-c1ccc2nc(-c3sc(C)nc3C)ccc2c1 [Compound 4.4b, 3-cyclohexyl-5-ethynyl-4-(2-(2,4-dimethylthiazol-5-yl)quinolin-6-yl)benzoic acid] | 87% |
| Cc1nc(C)c(-c2ccc3cc(-c4c(CC(=O)N5CCOCC5)cc(-c5nnn[nH]5)cc4C4CCCCC4)ccc3n2)s1 [Compound 11, 2-[3-cyclohexyl-2-[2-(2,4-dimethyl-thiazol-5-yl)-quinolin-6-yl]-5-(1H-tetrazol-5-yl)-phenyl]-1-morpholin-4-yl-ethanone] | 27% |
| Cc1nc(C)c(-c2ccc3cc(-c4c(/C=C/C(=O)N5CCCCC5)cc(C(=O)O)cc4C4CCCCC4)ccc3n2)s1 [Compound 2.9b, 3-cyclohexyl-4-(2-(2,4-dimethylthiazol-5-yl)quinolin-6-yl)-5-((E)-3-oxo-3-(piperidin-1-yl)prop-1-enyl)benzoic acid] | 80% |
| Cc1nc(C)c(-c2ccc3cc(-c4c(CC(=O)N5CCOCC5)cc(C(=O)NC5(C(=O)O)CCCC5)cc4C4CCCCC4)ccc3n2)s1 [Compound 10, 1-[3-cyclohexyl-4-[2-(2,4-dimethyl-thiazol-5-yl)-quinolin-6-yl]-5-(2-morpholin-4-yl-2-oxo-ethyl)-benzoylamino]-cyclopentanecarboxylic acid] | 51% |
| Cc1nc(C)c(-c2ccc3cc(-c4c(C5CCCCC5)cc(C(=O)O)cc4[N+](=O)[O-])ccc3n2)s1 [Compound 7, 3-cyclohexyl-4-[2-(2,4-dimethyl-thiazol-5-yl)-quinolin-6-yl]-5-nitro-benzoic acid] | 30% |
| COCCOc1ccc(-c2ccc(Cl)cc2)c(-c2ccc3cc(-c4ccc(C(=O)O)cc4C4CCCCC4)ccc3n2)c1 [Compound 1.8b, 3-cyclohexyl-4-(2-(3-(2-methoxyethoxy)-6-(4′-chlorophenyl)phenyl)quinolin-6-yl)benzoic acid] | 94% |
| COc1ccc(-c2ccc(Cl)cc2)c(-c2ccc3cc(-c4ccc(C(=O)O)cc4C4CCCCC4)ccc3n2)c1 [Compound 1.8a, 3-cyclohexyl-4-(2-(3-methoxy-6-(4′-chlorophenyl)phenyl)quinolin-6-yl)benzoic acid] | 89% |
| Cc1nc(C)c(-c2ccc3cc(-c4c(N)cc(C(=O)O)cc4C4CCCCC4)ccc3n2)s1 [Compound 8, 3-amino-5-cyclohexyl-4-[2-(2,4-dimethyl-thiazol-5-yl)-quinolin-6-yl]-benzoic acid] | 54% |
